Experimental data as given in the NIST ThermoML archive (doi:10.1016/j.jct.2016.10.007).

Experiments:
[1] = Wilhemy plate method
[2] = wn = mass fraction of the nth substance listed; conditions: Wilhemy plate method

CCN(CC)CCO [(diethylamino)ethanol]
[1]
Conditions	surface tension liquid-gas [mN/m]
283.2 K	29.7
293.2 K	28.6
303.2 K	27.7
313.2 K	26.4
323.2 K	25.2

CCN(CC)CCO [(diethylamino)ethanol] + O
surface tension liquid-gas [mN/m], [2]
Conditions	303.2 K	313.2 K	323.2 K
w1 = 0.1	41.2	39.2	37.3
w1 = 0.137	40.1	–	–
w1 = 0.2	36.5	34.7	33.1
w1 = 0.213	36.3	–	–
w1 = 0.3	34.9	33.2	31.7
w1 = 0.4	33.6	32.1	30.7
w1 = 0.483	32.9	–	–
w1 = 0.5	32.7	31.2	29.9
w1 = 0.58	31.8	–	–
w1 = 0.6	31.3	29.8	28.3
w1 = 0.685	30.7	–	–
w1 = 0.7	30.3	28.7	27.3
w1 = 0.8	29.6	28	26.6
w1 = 0.814	29.5	–	–
w1 = 0.9	28.7	27.3	26
w1 = 0.91	28.6	–	–
w1 = 1	27.7	26.4	25.2

O [water]
Conditions	surface tension liquid-gas [mN/m]
[1], 298.2 K	71.9
